In ChEMBL document CHEMBL1145472, “Genetic basis of resistance to fusidic acid in staphylococci” (2007):
Converted amounts (≈) assume the structure as drawn.

Key:
Assay type in all cases: functional
[1] = test system: Staphylococcus aureus; experiment: Antimicrobial activity against Staphylococcus aureus RN4220 expressing (pCU1:SAS0043) (fusC) gene
[2] = test system: Staphylococcus aureus; experiment: Antimicrobial activity against Staphylococcus aureus CS1076
[3] = test system: Staphylococcus aureus; experiment: Antimicrobial activity against Staphylococcus aureus 649 expressing pUB101
[4] = test system: Staphylococcus lugdunensis; experiment: Antimicrobial activity against Staphylococcus lugdunensis 16641
[5] = test system: Staphylococcus aureus; experiment: Antimicrobial activity against Staphylococcus aureus CS992
[6] = test system: Staphylococcus aureus; experiment: Antimicrobial activity against Staphylococcus aureus CS805
[7] = test system: Staphylococcus intermedius; experiment: Antimicrobial activity against Staphylococcus intermedius CL1
[8] = test system: Staphylococcus aureus; experiment: Antimicrobial activity against Staphylococcus aureus RN4220 expressing pCU1 gene
[9] = test system: Staphylococcus aureus; experiment: Antimicrobial activity against Staphylococcus aureus RN4220
[10] = test system: Staphylococcus aureus; experiment: Antimicrobial activity against Staphylococcus aureus RN4220 expressing pAJ96:fusB
[11] = test system: Staphylococcus intermedius; experiment: Antimicrobial activity against Staphylococcus intermedius NCTC 11048
[12] = test system: Staphylococcus lugdunensis; experiment: Antimicrobial activity against Staphylococcus lugdunensis 40869
[13] = test system: Staphylococcus aureus; experiment: Antimicrobial activity against Staphylococcus aureus CS860
[14] = test system: Staphylococcus aureus; experiment: Antimicrobial activity against Staphylococcus aureus RN4220 expressing (pAJ96:SSP2165) (fusD) gene
[15] = test system: Staphylococcus aureus; experiment: Antimicrobial activity against Staphylococcus aureus CS730
[16] = test system: Staphylococcus aureus; experiment: Antimicrobial activity against Staphylococcus aureus CS866
[17] = test system: Staphylococcus aureus; experiment: Antimicrobial activity against Staphylococcus aureus CS957
[18] = test system: Staphylococcus aureus; experiment: Antimicrobial activity against Staphylococcus aureus CS1083
[19] = test system: Staphylococcus intermedius; experiment: Antimicrobial activity against Staphylococcus intermedius CL2
[20] = test system: Staphylococcus aureus; experiment: Antimicrobial activity against Staphylococcus aureus CS979
[21] = test system: Staphylococcus aureus; experiment: Antimicrobial activity against Staphylococcus aureus CS602
[22] = test system: Staphylococcus saprophyticus; experiment: Antimicrobial activity against Staphylococcus saprophyticus ATCC 15305
[23] = test system: Staphylococcus aureus; experiment: Antimicrobial activity against methicillin-susceptible Staphylococcus aureus 476
[24] = test system: Staphylococcus aureus; experiment: Antimicrobial activity against Staphylococcus aureus RN4220 expressing pCU1:fusB gene
[25] = test system: Staphylococcus aureus; experiment: Antimicrobial activity against Staphylococcus aureus CS1128
[26] = test system: Staphylococcus aureus; experiment: Antimicrobial activity against Staphylococcus aureus CS808
[27] = test system: Staphylococcus aureus; experiment: Antimicrobial activity against Staphylococcus aureus CS851
[28] = test system: Staphylococcus aureus; experiment: Antimicrobial activity against Staphylococcus aureus
[29] = test system: Staphylococcus lugdunensis; experiment: Antimicrobial activity against Staphylococcus lugdunensis 16496
[30] = test system: Staphylococcus aureus; experiment: Antimicrobial activity against Staphylococcus aureus RN4220 expressing pAJ96
[31] = test system: Staphylococcus aureus; experiment: Antimicrobial activity against Staphylococcus aureus RN4220 expressing (pAJ96:SAS0043) (fusC) gene
[32] = test system: Staphylococcus lugdunensis; experiment: Antimicrobial activity against Staphylococcus lugdunensis 31440
[33] = test system: Staphylococcus aureus; experiment: Antimicrobial activity against Staphylococcus aureus RN4220 expressing (pCU1:SSP2165) (fusD) gene

## CC(=O)O[C@H]1C[C@@]2(C)[C@@H](C[C@@H](O)[C@H]3[C@@]4(C)CC[C@@H](O)[C@@H](C)[C@@H]4CC[C@@]32C)/C1=C(\CCC=C(C)C)C(=O)O [FUSIDIC ACID]
[1]
  MIC: 16 µg/mL (≈ 31 µM)
[2]
  MIC: 8 µg/mL (≈ 15.5 µM)
[3]
  MIC: 16 µg/mL (≈ 31 µM)
[4]
  MIC: 4 µg/mL (≈ 7.74 µM)
[5]
  MIC: 2 µg/mL (≈ 3.87 µM)
[6]
  MIC: 8 µg/mL (≈ 15.5 µM)
[7]
  MIC: 4 µg/mL (≈ 7.74 µM)
[8]
  MIC: 0.125 µg/mL (≈ 0.242 µM)
[9]
  MIC: 0.125 µg/mL (≈ 0.242 µM)
[10]
  MIC: 32 µg/mL (≈ 61.9 µM)
[11]
  MIC: 0.064 µg/mL (≈ 0.124 µM)
[12]
  MIC: 0.064 µg/mL (≈ 0.124 µM)
[13]
  MIC: 8 µg/mL (≈ 15.5 µM)
[14]
  MIC: 4 µg/mL (≈ 7.74 µM)
[15]
  MIC: 3 µg/mL (≈ 5.81 µM)
[16]
  MIC: 3 µg/mL (≈ 5.81 µM)
[17]
  MIC: 3 µg/mL (≈ 5.81 µM)
[18]
  MIC: 4 µg/mL (≈ 7.74 µM)
[19]
  MIC: 4 µg/mL (≈ 7.74 µM)
[20]
  MIC: 4 µg/mL (≈ 7.74 µM)
[21]
  MIC: 4 µg/mL (≈ 7.74 µM)
[22]
  MIC: 2 µg/mL (≈ 3.87 µM)
[23]
  MIC: 8 µg/mL (≈ 15.5 µM)
[24]
  MIC: 16 µg/mL (≈ 31 µM)
[25]
  MIC: 4 µg/mL (≈ 7.74 µM)
[26]
  MIC: 3 µg/mL (≈ 5.81 µM)
[27]
  MIC: 4 µg/mL (≈ 7.74 µM)
[28]
  MIC: 4 µg/mL (≈ 7.74 µM)
[29]
  MIC: 4 µg/mL (≈ 7.74 µM)
[30]
  MIC: 0.125 µg/mL (≈ 0.242 µM)
[31]
  MIC: 16 µg/mL (≈ 31 µM)
[32]
  MIC: 4 µg/mL (≈ 7.74 µM)
[33]
  MIC: 2 µg/mL (≈ 3.87 µM)
